Data: ChEMBL document CHEMBL1201862, “PubChem BioAssay data set” (2004)
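Assay format: 96-well plates, 48-hour exposure. The concentration for 50% growth inhibition is given as GI50.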 Active and inactive are the calls of the source. Rule as the data show it: active = GI50 up to about 1.1 µM and inactive = higher.

Legend:
Assay in all cases: NCI anticancer screen, dose series, 48 h
[1] = tested on: NCI/ADR-RES
[2] = tested on: MDA-N
[3] = tested on: SF-268
[4] = tested on: SR
[5] = tested on: 786-0
[6] = tested on: HOP-62
[7] = tested on: U-251
[8] = tested on: NCI-H226
[9] = tested on: RXF 393
[10] = tested on: SK-MEL-28
[11] = tested on: OVCAR-3
[12] = tested on: OVCAR-5
[13] = tested on: KM12
[14] = tested on: SW-620
[15] = tested on: SF-539
[16] = tested on: IGROV-1
[17] = tested on: DU-145
[18] = tested on: EKVX
[19] = tested on: NCI-H23
[20] = tested on: CCRF-CEM

Measured: GI50

c1cc(CNCCN2CCNCC2)ccn1
inactive: [1] > 100 µM | [2] > 100 µM | [3] > 100 µM | [4] > 100 µM | [5] > 100 µM | [6] > 100 µM | [7] > 100 µM | [8] > 100 µM | [9] > 100 µM | [10] > 100 µM | [11] > 100 µM | [12] > 100 µM | [13] > 100 µM | [14] > 100 µM | [15] > 100 µM | [16] > 100 µM | [17] > 100 µM | [18] > 100 µM | [19] > 100 µM

C[C@H]1CC[C@@H]2[C@@H](C)[C@H]3[C@H](C[C@H]4[C@@H]5CC=C6C[C@@H](O)CC[C@]6(C)[C@H]5C[C@H](O)[C@]34C)N2C1
inactive: [1] > 100 µM | [2] > 100 µM | [3] > 100 µM | [4] > 100 µM | [5] > 100 µM | [6] > 100 µM | [7] > 100 µM | [8] > 100 µM | [9] > 100 µM | [10] > 100 µM | [11] > 100 µM | [12] > 100 µM | [13] > 100 µM | [14] > 100 µM | [15] > 100 µM | [16] > 100 µM | [17] > 100 µM | [18] > 100 µM | [19] > 100 µM

CCOC(=O)c1ccc(/N=C2/C(=S)N(c3ccc(C(=O)OCC)cc3)C(=N)N2/N=C/c2ccccc2)cc1
inactive: [1] 38.3 µM | [2] 12.1 µM | [3] 16.2 µM | [4] 3.52 µM | [5] 11.3 µM | [6] > 10 µM | [7] > 10 µM | [8] 15 µM | [9] 5.13 µM | [10] > 10 µM | [11] 13.1 µM | [12] 20 µM | [13] 14.7 µM | [14] 1.51 µM | [15] 20.1 µM | [16] 30.6 µM | [17] 37.3 µM | [18] 27.1 µM | [19] > 10 µM

CN1c2ccc(Cl)cc2C(=O)NC1c1ccc([N+](=O)[O-])s1 (stereo not given)
inactive: [1] 15.3 µM | [2] 16.2 µM | [3] 3.75 µM | [4] 14.6 µM | [5] 16.6 µM | [6] 18.5 µM | [7] 16.4 µM | [9] 11.6 µM | [10] 18.7 µM | [11] 15.5 µM | [12] 20.2 µM | [13] 16.4 µM | [14] 32.7 µM | [15] 18.1 µM | [16] 15.4 µM | [17] 19.3 µM | [20] 39.5 µM | [18] 21.5 µM

N/N=C(\Nc1ccccc1)SCc1ccccc1
inactive: [1] > 100 µM | [2] > 100 µM | [4] > 100 µM | [5] > 100 µM | [6] > 100 µM | [7] > 100 µM | [8] > 100 µM | [9] > 100 µM | [10] > 100 µM | [11] > 100 µM | [12] > 100 µM | [13] > 100 µM | [14] > 100 µM | [15] > 100 µM | [16] > 100 µM | [17] > 100 µM | [20] > 100 µM | [19] > 100 µM

O=C(NNc1cn[nH]c(=O)n1)c1cccc2nc3ccccc3nc12
inactive: [1] > 100 µM | [2] > 100 µM | [3] 38.7 µM | [4] 10.7 µM | [5] 45.2 µM | [7] 27.9 µM | [8] 82.2 µM | [9] 21.7 µM | [10] > 100 µM | [11] 68.7 µM | [12] > 100 µM | [13] > 100 µM | [14] > 100 µM | [15] 46.7 µM | [16] 38.2 µM | [17] 85.3 µM | [20] 45.7 µM | [18] 35.8 µM | [19] 45.6 µM

CC1S/C(=N\N=C2/C(=O)Nc3ccc(Br)cc32)N(C2CCCCC2)C1=O (stereo not given)
inactive: [1] 3.4 µM | [2] 12.1 µM | [3] 6.38 µM | [4] 5.06 µM | [5] 2.59 µM | [6] 2.09 µM | [7] 2.54 µM | [8] 4.03 µM | [9] 3.21 µM | [10] 6.08 µM | [11] 2.75 µM | [12] 14.4 µM | [13] 4.65 µM | [14] 11.7 µM | [15] 3.66 µM | [17] 3.73 µM | [20] 39.8 µM | [18] 4.16 µM | [19] 4.42 µM

COP1(=O)NCc2ncccc2O1 (stereo not given)
inactive: [1] > 100 µM | [2] > 100 µM | [4] > 100 µM | [5] > 100 µM | [6] > 100 µM | [7] > 100 µM | [8] > 100 µM | [9] > 100 µM | [10] > 100 µM | [11] > 100 µM | [12] > 100 µM | [13] > 100 µM | [14] > 100 µM | [15] > 100 µM | [16] > 100 µM | [17] > 100 µM | [20] > 100 µM | [18] > 100 µM | [19] > 100 µM
